# According to patent publication US20250144094A1 (Erasca, Inc., priority 2021, published 2025):
# Biological target: Recombinant human ULK1 (1-649) (Homo sapiens (Human), UniProt O75385)
# Assay: ULK1 ADP Glo kinase activity assay, new method (ULKtide peptide substrate)
# Details: 25° C., 40 minutes, read-out: ULK1 biochemical IC50
# Procedure, shortened: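 Kinase activity was read as ADP production (ADP-Glo, luminescence 30 min after detection reagent) following a 40-min, 25 °C reaction of Sf9-expressed GST-ULK1 (1-649) with ULKtide substrate and ATP. Compounds ran as 12-point series starting at 10 μM; four-parameter curve fitting versus DMSO wells gave IC50.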
# Chain of Recombinant human ULK1 (1-649) (O75385 1-649): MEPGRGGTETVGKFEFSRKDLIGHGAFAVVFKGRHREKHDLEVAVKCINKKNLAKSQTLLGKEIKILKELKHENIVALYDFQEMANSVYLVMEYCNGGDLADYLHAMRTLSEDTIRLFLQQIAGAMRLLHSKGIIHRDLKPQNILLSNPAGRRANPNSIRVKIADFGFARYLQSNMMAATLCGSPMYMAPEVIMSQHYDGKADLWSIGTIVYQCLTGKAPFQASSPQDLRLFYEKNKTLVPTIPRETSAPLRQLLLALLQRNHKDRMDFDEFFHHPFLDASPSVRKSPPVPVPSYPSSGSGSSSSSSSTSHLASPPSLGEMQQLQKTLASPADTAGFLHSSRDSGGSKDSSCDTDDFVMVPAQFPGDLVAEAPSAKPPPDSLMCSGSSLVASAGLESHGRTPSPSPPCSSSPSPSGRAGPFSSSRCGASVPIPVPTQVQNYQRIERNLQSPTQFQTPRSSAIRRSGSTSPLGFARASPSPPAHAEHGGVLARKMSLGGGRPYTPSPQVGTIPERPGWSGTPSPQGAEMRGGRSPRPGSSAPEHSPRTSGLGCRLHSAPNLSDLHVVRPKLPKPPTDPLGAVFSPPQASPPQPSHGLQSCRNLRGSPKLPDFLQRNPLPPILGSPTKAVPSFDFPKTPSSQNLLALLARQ
row,Compound,IC50
1,"CCc1cc(N2C[C@H]3CC[C@@H](C2)N3)ccc1Nc1ncc(C(F)(F)F)c(-c2cc3c(s2)C(=O)N(C2CC2)CCS3(=O)=O)n1 [Example 324, 7-(2-((4-((1R,5S)-3,8-diazabicyclo[3.2.1]octan-3-yl)-2-ethylphenyl)amino)-5-(trifluoromethyl)pyrimidin-4-yl)-4-cyclopropyl-3,4-dihydrothieno[2,3-f][1,4]thiazepin-5(2H)-one 1,1-dioxide]",≤ 5 nM
2,"CN1CCS(=O)(=O)c2cc(-c3nc(Nc4ccc(N5CCN(CC6CC6)CC5)cc4C4CC4)ncc3C(F)(F)F)sc2C1=O [Example 250, 7-(2-((2-cyclopropyl-4-(4-(cyclopropylmethyl)piperazin-1-yl)phenyl)amino)-5-(trifluoromethyl)pyrimidin-4-yl)-4-methyl-3,4-dihydrothieno[2,3-f][1,4]thiazepin-5(2H)-one 1,1-dioxide]",≤ 5 nM
3,"O=C1c2sc(-c3nc(Nc4cc5c(cc4C4CC4)CNCC5)ncc3C(F)(F)F)cc2S(=O)(=O)CCN1C1COC1 [Example 219, 7-(2-((7-cyclopropyl-1,2,3,4-tetrahydroisoquinolin-6-yl)amino)-5-(trifluoromethyl)pyrimidin-4-yl)-4-(oxetan-3-yl)-3,4-dihydrothieno[2,3-f][1,4]thiazepin-5(2H)-one 1,1-dioxide]",≤ 5 nM
4,"Cc1nn(C2CCN(C)CC2)cc1Nc1ncc(C(F)(F)F)c(-c2cc3c(s2)C(=O)N(C)CCS3(=O)=O)n1 [Example 183, 4-methyl-7-(2-((3-methyl-1-(1-methylpiperidin-4-yl)-1H-pyrazol-4-yl)amino)-5-(trifluoromethyl)pyrimidin-4-yl)-3,4-dihydrothieno[2,3-f][1,4]thiazepin-5(2H)-one 1,1-dioxide]",> 100 nM
5,"Cc1nn(C2CCNCC2)cc1Nc1ncc(C(F)(F)F)c(-c2cc3c(s2)C(=O)N(C)CCS3(=O)=O)n1 [Example 166, 4-methyl-7-(2-((3-methyl-1-(piperidin-4-yl)-1H-pyrazol-4-yl)amino)-5-(trifluoromethyl)pyrimidin-4-yl)-3,4-dihydrothieno[2,3-f][1,4]thiazepin-5(2H)-one 1,1-dioxide]",> 100 nM
6,"CCN1CCN(c2ccc(Nc3ncc(C(F)(F)F)c(-c4cc5c(s4)C(=O)N(C)CCS5(=O)=O)n3)c(Cl)c2)CC1 [Example 195, 7-(2-((2-chloro-4-(4-ethylpiperazin-1-yl)phenyl)amino)-5-(trifluoromethyl)pyrimidin-4-yl)-4-methyl-3,4-dihydrothieno[2,3-f][1,4]thiazepin-5(2H)-one 1,1-dioxide]",≤ 5 nM
7,"O=C1c2sc(-c3nc(Nc4cc5c(cc4Cl)CNCC5)ncc3C(F)(F)F)cc2S(=O)(=O)CCN1C1CCC1 [Example 158, 7-(2-((7-chloro-1,2,3,4-tetrahydroisoquinolin-6-yl)amino)-5-(trifluoromethyl)pyrimidin-4-yl)-4-cyclobutyl-3,4-dihydrothieno[2,3-f][1,4]thiazepin-5(2H)-one 1,1-dioxide]",≤ 5 nM
8,"CCc1cc2c(cc1Nc1ncc(C(F)(F)F)c(-c3cc4c(s3)C(=O)N(C3CC3)CCS4(=O)=O)n1)CCN(CC)C2 [Example 228, 4-cyclopropyl-7-(2-((2,7-diethyl-1,2,3,4-tetrahydroisoquinolin-6-yl)amino)-5-(trifluoromethyl)pyrimidin-4-yl)-3,4-dihydrothieno[2,3-f][1,4]thiazepin-5(2H)-one 1,1-dioxide]",≤ 5 nM
9,"CCc1cc2c(cc1Nc1ncc(C(F)(F)F)c(-c3cc4c(s3)C(=O)N(CC(F)(F)F)CCS4(=O)=O)n1)CCNC2 [Example 175, 7-(2-((7-ethyl-1,2,3,4-tetrahydroisoquinolin-6-yl)amino)-5-(trifluoromethyl)pyrimidin-4-yl)-4-(2,2,2-trifluoroethyl)-3,4-dihydrothieno[2,3-f][1,4]thiazepin-5(2H)-one 1,1-dioxide]",≤ 5 nM
10,"O=C1c2sc(-c3nc(Nc4cc5c(cc4C4CC4)CNCC5)ncc3C3CC3)cc2S(=O)(=O)CCN1C1CC1 [Example 261, 4-cyclopropyl-7-(5-cyclopropyl-2-((7-cyclopropyl-1,2,3,4-tetrahydroisoquinolin-6-yl)amino)pyrimidin-4-yl)-3,4-dihydrothieno[2,3-f][1,4]thiazepin-5(2H)-one 1,1-dioxide]",≤ 5 nM
11,"CCN1CCc2cc(Cl)c(Nc3ncc(C(F)(F)F)c(-c4cc5c(s4)C(=O)N(C)CCS5(=O)=O)n3)cc2C1 [Example 211, 7-(2-((6-chloro-2-ethyl-1,2,3,4-tetrahydroisoquinolin-7-yl)amino)-5-(trifluoromethyl)pyrimidin-4-yl)-4-methyl-3,4-dihydrothieno[2,3-f][1,4]thiazepin-5(2H)-one 1,1-dioxide]",10 to 50 nM
12,"O=C1c2sc(-c3nc(Nc4cc5c(cc4C4CC4)CN(CCF)CC5)ncc3C(F)(F)F)cc2S(=O)(=O)CCN1C1CC1 [Example 249, 4-cyclopropyl-7-(2-((7-cyclopropyl-2-(2-fluoroethyl)-1,2,3,4-tetrahydroisoquinolin-6-yl)amino)-5-(trifluoromethyl)pyrimidin-4-yl)-3,4-dihydrothieno[2,3-f][1,4]thiazepin-5(2H)-one 1,1-dioxide]",≤ 5 nM
13,"CN1C2CC1CN(c1ccc(Nc3ncc(C(F)(F)F)c(-c4cc5c(s4)C(=O)N(C4COC4)CCS5(=O)=O)n3)c(C3CC3)c1)C2 [Example 349, 7-(2-((2-cyclopropyl-4-(6-methyl-3,6-diazabicyclo[3.1.1]heptan-3-yl)phenyl)amino)-5-(trifluoromethyl)pyrimidin-4-yl)-4-(oxetan-3-yl)-3,4-dihydrothieno[2,3-f][1,4]thiazepin-5(2H)-one 1,1-dioxide]",≤ 5 nM
14,"CCc1cc(N2CCN(C(C)C)CC2)ccc1Nc1ncc(C(F)(F)F)c(-c2cc3c(s2)C(=O)N(C2CC2)CCS3(=O)=O)n1 [Example 272, 4-cyclopropyl-7-(2-((2-ethyl-4-(4-isopropylpiperazin-1-yl)phenyl)amino)-5-(trifluoromethyl)pyrimidin-4-yl)-3,4-dihydrothieno[2,3-f][1,4]thiazepin-5(2H)-one 1,1-dioxide]",≤ 5 nM
15,"CCN1Cc2cc(C)c(Nc3ncc(C(F)(F)F)c(-c4cc5c(s4)C(=O)N(C)CCS5(=O)=O)n3)cc2C1 [Example 192, 7-(2-((2-ethyl-6-methylisoindolin-5-yl)amino)-5-(trifluoromethyl)pyrimidin-4-yl)-4-methyl-3,4-dihydrothieno[2,3-f][1,4]thiazepin-5(2H)-one 1,1-dioxide]",≤ 5 nM
16,"O=C1c2sc(-c3nc(Nc4cc5c(cc4Cl)CCNC5)ncc3C(F)(F)F)cc2S(=O)(=O)CCN1CC(F)(F)F [Example 214, 7-(2-((6-chloro-1,2,3,4-tetrahydroisoquinolin-7-yl)amino)-5-(trifluoromethyl)pyrimidin-4-yl)-4-(2,2,2-trifluoroethyl)-3,4-dihydrothieno[2,3-f][1,4]thiazepin-5(2H)-one 1,1-dioxide]",≤ 5 nM

# Continued, values first:
row,IC50,Compound
1,≤ 5 nM,"O=S1(=O)CCNS(=O)(=O)c2sc(-c3nc(Nc4cc5c(cc4Cl)CNCC5)ncc3C(F)(F)F)cc21 [Example 295, 7-(2-((7-chloro-1,2,3,4-tetrahydroisoquinolin-6-yl)amino)-5-(trifluoromethyl)pyrimidin-4-yl)-3,4-dihydro-2H-thieno[3,2-f][1,5,2]dithiazepine 1,1,5,5-tetraoxide]"
2,≤ 5 nM,"CCc1cc(N2C[C@@H](C)N[C@@H](C)C2)ccc1Nc1ncc(C(F)(F)F)c(-c2cc3c(s2)C(=O)N(C2CC2)CCS3(=O)=O)n1 [Example 366, 4-cyclopropyl-7-(2-((4-((3S,5R)-3,5-dimethylpiperazin-1-yl)-2-ethylphenyl)amino)-5-(trifluoromethyl)pyrimidin-4-yl)-3,4-dihydrothieno[2,3-f][1,4]thiazepin-5(2H)-one 1,1-dioxide]"
3,≤ 5 nM,"C[C@H]1CN(c2ccc(Nc3ncc(C(F)(F)F)c(-c4cc5c(s4)C(=O)N(C)CCS5(=O)=O)n3)c(C3CC3)c2)CCN1 [Example 380, (S)-7-(2-((2-cyclopropyl-4-(3-methylpiperazin-1-yl)phenyl)amino)-5-(trifluoromethyl)pyrimidin-4-yl)-4-methyl-3,4-dihydrothieno[2,3-f][1,4]thiazepin-5(2H)-one 1,1-dioxide]"
4,5 to 10 nM,"CCc1cc(N2C[C@@H]3C[C@H]2CN3C)ccc1Nc1ncc(C(F)(F)F)c(-c2cc3c(s2)C(=O)N(C2COC2)CCS3(=O)=O)n1 [Example 346, 7-(2-((2-Ethyl-4-((1S,4S)-5-methyl-2,5-diazabicyclo[2.2.1]heptan-2-yl)phenyl)amino)-5-(trifluoromethyl)pyrimidin-4-yl)-4-(oxetan-3-yl)-3,4-dihydrothieno[2,3-f][1,4]thiazepin-5(2H)-one 1,1-dioxide]"
5,≤ 5 nM,"CCc1cc(N2CCN(C)[C@@H](CO)C2)ccc1Nc1ncc(C(F)(F)F)c(-c2cc3c(s2)C(=O)N(C2CC2)CCS3(=O)=O)n1 [Example 408, (R)-4-cyclopropyl-7-(2-((2-ethyl-4-(3-(hydroxymethyl)-4-methylpiperazin-1-yl)phenyl)amino)-5-(trifluoromethyl)pyrimidin-4-yl)-3,4-dihydrothieno[2,3-f][1,4]thiazepin-5(2H)-one 1,1-dioxide]"
6,5 to 10 nM,"C[C@H]1CN(c2ccc(Nc3ncc(C(F)(F)F)c(-c4cc5c(s4)C(=O)N(C4CC4)CCS5(=O)=O)n3)c(C3CC3)c2)C[C@H](C)N1C [Example 328, 4-cyclopropyl-7-(2-((2-cyclopropyl-4-((3S,5S)-3,4,5-trimethylpiperazin-1-yl)phenyl)amino)-5-(trifluoromethyl)pyrimidin-4-yl)-3,4-dihydrothieno[2,3-f][1,4]thiazepin-5(2H)-one 1,1-dioxide]"
7,≤ 5 nM,"NC(=O)[C@@H]1CN(c2ccc(Nc3ncc(C(F)(F)F)c(-c4cc5c(s4)C(=O)N(C4COC4)CCS5(=O)=O)n3)c(C3CC3)c2)CCN1 [Example 371, (S)-4-(3-cyclopropyl-4-((4-(4-(oxetan-3-yl)-1,1-dioxido-5-oxo-2,3,4,5-tetrahydrothieno[2,3-f][1,4]thiazepin-7-yl)-5-(trifluoromethyl)pyrimidin-2-yl)amino)phenyl)piperazine-2-carboxamide]"
